The record followed here is PubChem BioAssay (NCI).

“And” between values parts separate entries of the source, which are not always exact repeats. Equal values may be shown once.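 96-well plates; 48 h exposure; 5 concentrations. Endpoints by linear interpolation between flanking doses. Not reached: highest tested concentration assigned. The concentration for 50% growth inhibition is given as GI50. At the TGI there is no net growth.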 Some results are limits rather than exact numbers.

Test systems include A549 NSCLC; BT-549 breast; HL-60(TB) leukemia; M14 melanoma; MDA-MB-231 breast; MOLT-4 leukemia; SN12C renal; T-47D breast.
What all share (assay): NCI tumour cell line growth inhibition, 48 h

`CC1=NN(c2cccc(S(=O)(=O)O)c2)C2(C1)SCC(=O)N2c1nc2ccccc2s1` (centres undefined): the TGI in the experiment with A549 NSCLC, with BT-549 breast, with HL-60(TB) leukemia, in the experiment on M14 melanoma, with MDA-MB-231 breast and in the experiment with MOLT-4 leukemia was greater than 100 µM each time. Also, the TGI in the experiment on SN12C renal and in the experiment on T-47D breast was greater than 100 µM throughout.

On to `CCCCCC(=O)OC[n+]1ccc(-c2c(COC(=O)NC(C)C)c(COC(=O)NC(C)C)c3n2CCC3)cc1`, for which the TGI in the experiment on A549 NSCLC was greater than 100 µM; in the experiment with BT-549 breast, greater than 100 µM; in the experiment on HL-60(TB) leukemia it was 96.8 µM; in the experiment on M14 melanoma, greater than 100 µM; in the experiment on MDA-MB-231 breast, greater than 100 µM; with MOLT-4 leukemia, greater than 100 µM. The TGI in the experiment with SN12C renal and in the experiment on T-47D breast was greater than 100 µM throughout.

Consider `O=C1N(c2ccccc2)N=C2c3ccncc3C3=NN(c4ccccc4)C(=O)C123` (centres undefined), for which the TGI in the experiment on A549 NSCLC, in the experiment with BT-549 breast, in the experiment with HL-60(TB) leukemia, in the experiment on M14 melanoma, in the experiment with MDA-MB-231 breast and in the experiment on MOLT-4 leukemia was greater than 100 µM in each case. Also, the TGI in the experiment on SN12C renal and in the experiment with T-47D breast was greater than 100 µM throughout.

For the molecule `C=CCOC1=C(OC(C)=O)C(C2COC(C)(C)O2)OC1=O` (centres undefined), the TGI was 69.4 µM in the experiment with A549 NSCLC; 60.1 µM with BT-549 breast; 40.3 µM in the experiment with HL-60(TB) leukemia; 53.8 µM in the experiment with M14 melanoma; 34.5 µM with MDA-MB-231 breast; 43.8 µM in the experiment on MOLT-4 leukemia. Besides, the TGI in the experiment with SN12C renal is 70.8 µM; with T-47D breast, 39.7 µM.

As for `COc1ccc(/C=C2/C(=O)C(c3ccccc3)N(c3ccccc3)C2=O)cc1OC` (centres undefined), the TGI in the experiment on A549 NSCLC, with BT-549 breast, with HL-60(TB) leukemia, with M14 melanoma, with MDA-MB-231 breast and in the experiment with MOLT-4 leukemia was greater than 10 µM each time. In addition, the TGI in the experiment on SN12C renal and with T-47D breast was greater than 10 µM throughout.

Take `CN1CCN2CCN(C)CCN(CC1)CC2`: the TGI in the experiment on A549 NSCLC, in the experiment with BT-549 breast, in the experiment with HL-60(TB) leukemia, in the experiment with M14 melanoma, in the experiment on MDA-MB-231 breast and with MOLT-4 leukemia was greater than 100 µM throughout. Also, the TGI in the experiment with SN12C renal and in the experiment on T-47D breast was greater than 100 µM throughout.

For `COc1ccc(-c2c(C#N)c(N)n(C3OC(COC(C)=O)C(OC(C)=O)C(OC(C)=O)C3OC(C)=O)c(=S)c2C#N)cc1` (centres undefined), the GI50 with A549 NSCLC is 36.2 µM and > 100 µM; with HL-60(TB) leukemia, > 100 µM and 27.9 µM; with M14 melanoma, > 100 µM and 28.4 µM; in the experiment with MOLT-4 leukemia, > 100 µM and 37 µM. Also, the TGI is greater than 100 µM with A549 NSCLC; 89.3 µM and 72 µM in the experiment on BT-549 breast; > 100 µM and 48.5 µM in the experiment on HL-60(TB) leukemia; greater than 100 µM in the experiment on M14 melanoma; > 100 µM and 71.2 µM in the experiment with MDA-MB-231 breast; > 100 µM and 75.1 µM in the experiment on MOLT-4 leukemia. The TGI with SN12C renal is greater than 100 µM; in the experiment on T-47D breast, > 100 µM and 46.5 µM.

In the case of `FC(F)(F)c1ccc(N=NN2CCCC2)cc1`, the TGI in the experiment on A549 NSCLC, in the experiment on BT-549 breast, with HL-60(TB) leukemia, in the experiment on M14 melanoma, with MDA-MB-231 breast and with MOLT-4 leukemia was greater than 100 µM each time. Moreover, the TGI in the experiment on SN12C renal and in the experiment on T-47D breast was greater than 100 µM in each case.

For `CC(=O)Oc1ccc(C2SCc3nc4ccccc4n32)cc1` (centres undefined), the TGI with A549 NSCLC was greater than 100 µM; with BT-549 breast it was greater than 53.3 µM; in the experiment on HL-60(TB) leukemia, 37.8 µM; with M14 melanoma, greater than 100 µM; in the experiment on MDA-MB-231 breast, greater than 100 µM; with MOLT-4 leukemia it was 46.4 µM. For the same molecule, the TGI in the experiment with SN12C renal and with T-47D breast was greater than 100 µM each time.

With `N#C[C@H](c1nc2ccccc2[nH]1)c1nc2ccccc2nc1Cl`, the TGI was greater than 100 µM in the experiment with A549 NSCLC; greater than 47.8 µM with BT-549 breast; 3.12 µM in the experiment on HL-60(TB) leukemia; greater than 50.3 µM in the experiment with M14 melanoma; 35.3 µM in the experiment on MDA-MB-231 breast; 16.8 µM with MOLT-4 leukemia. Moreover, the TGI in the experiment on SN12C renal came to 30.9 µM; in the experiment on T-47D breast, 12.9 µM.

For the molecule `O=C(O)COc1cccc2ccccc(=O)c12`, the TGI in the experiment on A549 NSCLC, with BT-549 breast, in the experiment on HL-60(TB) leukemia, in the experiment on M14 melanoma, in the experiment on MDA-MB-231 breast and in the experiment on MOLT-4 leukemia was greater than 100 µM in each case. The TGI in the experiment on SN12C renal and with T-47D breast was greater than 100 µM each time.

`COC(=O)CC(c1ccccc1)C(C#N)(OP1(=O)OC(c2ccccc2)C(C)N1C)c1ccccc1` (centres undefined): the TGI was greater than 100 µM with A549 NSCLC; greater than 100 µM with BT-549 breast; 72.6 µM with HL-60(TB) leukemia; greater than 100 µM in the experiment on M14 melanoma; greater than 100 µM with MDA-MB-231 breast; 64.6 µM in the experiment on MOLT-4 leukemia. Besides, the TGI in the experiment on SN12C renal and in the experiment on T-47D breast was greater than 100 µM each time.

`O=c1[nH]nc(-c2ccccc2)c2[nH]c3c(c12)CCCc1ccccc1-3`: the TGI worked out at 25.6 µM with A549 NSCLC; 47.4 µM in the experiment on BT-549 breast; 46.2 µM in the experiment on HL-60(TB) leukemia; 36.9 µM in the experiment with M14 melanoma; 52.4 µM with MDA-MB-231 breast; 33.8 µM in the experiment on MOLT-4 leukemia. Besides, the TGI in the experiment with SN12C renal was determined as 35.8 µM; in the experiment with T-47D breast it was 57.5 µM.

For the molecule `[B]C(=O)NC(CC(C)C)C(=O)NC1c2ccsc2C(=O)C1O` (centres undefined) (tested in a mixture with another compound), the TGI in the experiment on A549 NSCLC, with BT-549 breast, with HL-60(TB) leukemia, with M14 melanoma, in the experiment with MDA-MB-231 breast and in the experiment on MOLT-4 leukemia was greater than 100 µM throughout. In addition, the TGI in the experiment with SN12C renal and with T-47D breast was greater than 100 µM each time.

Turning to `CC1(C)CC(=O)C(/C=N/c2nc(-c3cccc([N+](=O)[O-])c3)cs2)=C(O)C1`, the TGI was greater than 100 µM with A549 NSCLC; 54 µM in the experiment with BT-549 breast; greater than 100 µM in the experiment with HL-60(TB) leukemia; 38.2 µM with M14 melanoma; 43 µM in the experiment with MDA-MB-231 breast; greater than 100 µM in the experiment on MOLT-4 leukemia. Besides, the TGI came to 37.6 µM with SN12C renal and 37.3 µM in the experiment on T-47D breast.
